Data published in PubChem BioAssay (NCI).
Values joined by “and” are separate entries in the source; they are usually repeats but may differ in a detail not shown here. Identical values can stand only once.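 Results reflect a 48-hour exposure of cells in 96-well plates to compound at five concentrations. GI50 = concentration required for 50% inhibition of growth. At the TGI there is no net growth.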 *1 amine or outer side, *2 acyl side, *3 side chain or, on linkers, in order; H or OH if unused. Where a SMILES comes first, the peptide text is derived from it. Bridges are numbered along the chain shown (N, C = ends). Roman numbers before positions name the chains, in order. [ ]: non-standard residue; d: D form. Actinocin(9to1) = Cc1c2oc3c(C)ccc(C(=O)[*:1])c3nc-2c(C(=O)[*:2])c(N)c1=O; NMeF = CN[CH](Cc1ccccc1)C(=O)O; Sar = CNCC(=O)O

Experiments:
Experiment in all cases: NCI-60 cell line screen, 48 h
[1] = test system: CAKI-1 renal
[2] = test system: COLO 205 colon
[3] = test system: HCC-2998 colon
[4] = test system: HOP-62 NSCLC
[5] = test system: LOX IMVI melanoma
[6] = test system: SF-295 CNS
[7] = test system: SK-MEL-2 melanoma
[8] = test system: SK-MEL-5 melanoma
[9] = test system: SK-OV-3 ovarian
[10] = test system: SN12C renal

Row | Compound | GI50 [1] | TGI [1] | GI50 [2] | TGI [2] | GI50 [3] | TGI [3] | GI50 [4] | TGI [4] | GI50 [5] | TGI [5] | GI50 [6] | TGI [6] | GI50 [7] | TGI [7] | GI50 [8] | TGI [8] | GI50 [9] | TGI [9] | GI50 [10] | TGI [10]
1 | CCCCCCCCCCCCCCCC1=NC(C)(C)CN1C(C)C | 1.13 µM | 2.53 µM | 1.5 µM | 2.83 µM | 1.35 µM | 2.64 µM | 1.63 µM | 2.98 µM | 1.45 µM | 2.8 µM | 1.74 µM | 3.3 µM | 1.63 µM | 3.07 µM | 1.68 µM | 3.04 µM | 1.85 µM | 3.57 µM | 1.38 µM | 2.89 µM
2 | C/C(=N\NC(=S)N(C)C)c1ccccn1 | 0.0567 µM | 12.5 µM |  |  |  | 15 µM | 0.0203 µM | 12.4 µM | 0.00215 µM | 0.141 µM and 0.0176 µM | 0.012 µM | 13.1 µM | 0.624 µM | 27.2 µM | 0.00143 µM |  |  | 0.889 µM | 0.0436 µM | 11.2 µM
3 | CCN(CC)CC(=N)N(CC)c1ccccc1 |  | > 100 µM |  | > 100 µM |  | > 100 µM |  | > 100 µM |  | > 100 µM |  | > 100 µM |  | > 100 µM |  | > 100 µM |  | > 100 µM |  | > 100 µM
4 | COc1ccc(N2C(=O)C3c4[nH]c5ccccc5c4C4CCCCC4C3C2=O)cc1 (configuration not stated) |  | > 100 µM |  | > 100 µM |  | 40.7 µM |  | 35.8 µM |  | > 100 µM |  | 36 µM |  | 53.5 µM |  | 66 µM |  | 52.7 µM |  | > 100 µM
5 | CC(C)(C)c1ccc(NS(=O)(=O)c2ccc3nc(NC(=O)c4cnccn4)[nH]c3c2)cc1 | 4.64 µM | 17.5 µM | 4.1 µM | 20.9 µM | 5.19 µM | 18.9 µM | 2.88 µM | 15.8 µM | 2.61 µM | 15.4 µM | 0.743 µM | 5.09 µM | 4.56 µM | 19 µM | 1.07 µM | 6.01 µM |  |  | 3.85 µM | 15.9 µM
6 | O=C(/C=C\c1cccc2ccccc12)c1cccc2ccccc12 |  | 32.4 µM |  |  |  | 28.4 µM |  | 39.7 µM | 4.42 µM | 18 µM |  | 30.2 µM |  | 36.8 µM |  | 27.1 µM |  |  |  | > 100 µM
7 | O=C1c2ccccc2C(=O)c2[nH]c(Cc3ccc(F)cc3)nc21 |  | 50.2 µM |  | 41 µM |  | 42.8 µM |  | 44.3 µM |  |  |  | 31.2 µM |  | 29 µM |  |  |  |  |  | 51.3 µM
8 | C=CC1=C(C)C2=NC1=CC1=NC(=C(CC)/C1=C\O)C=C1N=C3C(=C1C)C(=O)[C@H](C(=O)OC)C3=C1NC(=C2)[C@@H](C)[C@@H]1CCC(=O)O |  | > 100 µM |  | > 100 µM |  | > 100 µM |  |  |  | > 100 µM |  | > 100 µM |  | > 100 µM |  | > 100 µM |  | > 100 µM |  | > 100 µM
9 | CCCCCn1c(C)cc(/C=C\c2ccc3cc(C)ccc3[n+]2C)c1C | 0.164 µM | 0.675 µM |  |  | 0.143 µM | 1.51 µM | 0.283 µM | 0.98 µM | 0.0951 µM | 1.85 µM | 0.0982 µM | 0.595 µM |  |  | 0.0801 µM | 0.219 µM | 0.124 µM | 0.853 µM |  | 
10 | O=C1NCCS(=O)(=O)N2CCC[C@@H]12 |  | > 100 µM |  | > 100 µM |  | > 100 µM |  | > 100 µM |  | > 100 µM |  | > 100 µM |  |  |  | > 100 µM |  | > 100 µM |  | > 100 µM
11 | C/C=N\N1C(=O)c2ccccc2C1=O |  | > 100 µM |  |  |  | > 100 µM |  | > 100 µM |  | > 100 µM |  | > 100 µM |  | > 100 µM |  | > 100 µM |  |  |  | > 100 µM
12 | O=C(/C=C\c1ccccc1)N1CCc2ccccc2C1 |  | > 100 µM |  | 57.1 µM |  | > 100 µM |  | > 100 µM |  | > 100 µM |  | > 100 µM |  | 91.3 µM |  | 39.9 µM |  | > 100 µM |  | 
13 | NC(=S)NN=C1CSSC1 | 3.61 µM | 40.3 µM | 2.4 µM | 5.67 µM | 6.74 µM | 40.3 µM | 2.04 µM | 12.2 µM |  |  |  |  | 3.23 µM | 18.9 µM | 1.3 µM | 2.76 µM | 5.25 µM | 25.1 µM | 4.67 µM | > 100 µM
14 | Cc1ccc([C@]2(C)CC[C@H](C)/C2=C\Br)c(O)c1 | 4.32 µM | 16.6 µM | 2.49 µM | 6.14 µM |  |  | 4.22 µM | 15.7 µM | 8.21 µM | 22.3 µM | 3.4 µM | 11.6 µM | 2.82 µM | 17.9 µM | 3.88 µM | 15.5 µM | 2.45 µM | 7.03 µM | 4.05 µM | 15.1 µM
15 | CC1(C)CC(N(C(=O)/C=C/c2ccc([N+](=O)[O-])o2)C2CCCCC2)CC(C)(C)N1 |  | 17.2 µM |  |  |  | 23.6 µM |  | 34.5 µM |  | 25.4 µM |  | 26.4 µM |  |  |  | 21.8 µM |  | 43.6 µM |  | 18.9 µM
16 | Cc1c2oc3c(C)ccc(C(=O)NC4C(=O)NC(C(C)C)C(=O)N5CCCC5C(=O)N(C)CC(=O)N(C)C(Cc5ccccc5)C(=O)OC4C)c3nc-2c(C(=O)NC2C(=O)NC(C(C)C)C(=O)N3CCCC3C(=O)N(C)CC(=O)N(C)C(Cc3ccccc3)C(=O)OC2C)c(N)c1=O (configuration not stated) (I: TVP[Sar][NMeF] / II: TVP[Sar][NMeF]; ester I:1-I:C, II:1-II:C; linker I:N-II:N via Actinocin(9to1); configuration not given here) |  | 2.79 µM and > 0.223 µM | 0.00372 µM | 0.0266 µM |  | < 0.01 µM and 0.0486 µM |  | < 0.0134 µM and 0.0328 µM | < 0.01 µM and 0.00103 µM | < 0.01 µM |  | < 0.0141 µM and 0.108 µM |  | < 0.01 µM and 0.0326 µM |  | < 0.01 µM and 0.0479 µM |  |  | < 0.01 µM and 0.00213 µM | 
17 | Cn1c(=O)c2/c(n(C)c1=O)=N\C=c1\c(=O)n(C)c(=O)n(C)\c1=N\C=2 |  | > 100 µM |  | > 100 µM |  | > 100 µM |  | > 100 µM |  |  |  | > 100 µM |  | > 100 µM |  | > 100 µM |  |  |  | > 100 µM
18 | COc1ccc(Cn2cc3c(c2-c2cc(OC)c(OC)c(OC)c2)CCc2cnoc2-3)cc1 | 0.334 µM | > 100 µM |  |  | 0.557 µM | > 100 µM | 0.446 µM | > 100 µM | 0.813 µM | > 100 µM | 0.129 µM | 0.821 µM | 3.24 µM | > 100 µM | 0.276 µM | 4.99 µM | 0.365 µM | > 100 µM | 0.715 µM | > 100 µM
